{"source": "patent US20120270890A1", "about": "“Methods of Pancreatic Beta Cell Regeneration” (priority 2011, published 2012)", "format_in_all_cases": "in vivo, mice", "key": {"β-cells": {"tested_on": "β-cells", "assay": "β-cell elimination and β-cell mass after alloxan injection, with or without PDL", "method": "(§1) Six- to ten-week old C57/B6 or ICR (Institute of Cancer Research) mice (Harlan Sprague Dawley, Inc.; Placentia, Calif., USA) were injected intravenously with Alloxan (Sigma Aldrich, St. Louis, Mo., USA) at 90 mg/kg. PDL was conducted essentially as described with the following minor modifications. Approximately 50% of the pancreas (the head) remained proximal to the ligation. For the mice receiving PDL plus A, PDL was performed 30 minutes after alloxan injection. Only mice with a blood sugar greater than 500 mg/dl (checked 48 hours after alloxan injection) were selected for experiments. Those mice were injected subcutaneously once daily with insulin glargine (Sanofi-Aventis, Paris, France).\nQuantitation of β-cell Mass—β-cell mass was calculated as the relative β-cell area multiplied by pancreatic weight. For the quantitative analysis of insulin (+) cell area, we studied sections spaced 100 lm apart from each other from the tail of the pancreas per mouse. These sections were incubated with antisera to insulin (1:200, rabbit, Santa Cruz Biotechnology, Santa Cruz, Calif., USA) and the bound antibody was visualized by DAB (3,30-Diaminobenzidine) (Vector Laboratories, Burlingame, Calif., USA). The nuclei were stained by Hematoxylin (Surgipath, Richmond, Ill., USA). All slides were scanned and analyzed by using the Aperio ScanScope XT system (version 10, Aperio Technologies, Vista, Calif.)."}, "[1]": {"tested_on": "insulin-positive and glucagon-positive cells of the pancreas", "assay": "Immunohistochemical marker quantification in pancreas after PDL plus alloxan", "method": "as §1\nImmunohistochemical Staining—Tissue was fixed in 4% formaldehyde for 6 hours at 4° C., washed in PBS (Phosphate buffered saline), followed by overnight in 30% sucrose at 4° C., then embedded in OCT (Optimal Cutting Temperature) compound and frozen at […]. Cryosections of 5 um thickness were incubated with antisera specific for insulin (1/200, guinea pig, USBIO, Swampscott, Mass., USA), insulin (1/200, rabbit, Santa Cruz Biotechnology, Santa Cruz, Calif., USA), glucagon (1/2,000, mouse, Sigma-Aldrich, St. Louis, Mo., USA), glucagon (1/50, rabbit, Abcam, Cambridge, Mass., USA), cytokeratin (Wide Spectrum Screening; 1/500, rabbit, DakoCytomation, Glostrup, Denmark), somatostatin (1/200, goat, Santa Cruz Biotechnology, Santa Cruz, Calif., USA), KI67 (1/50, mouse, BD Pharmingen, San Diego, Calif., USA), MafA (1/100, rabbit, Bethyl Laboratories, Montgomery, Tex., USA), MafB (1/100, rabbit, Bethyl Laboratories, Montgomery, Tex., USA), PDX1 (1/2,000, goat, Abcam, Cambridge, Mass., USA), Nkx6.1 (1/1,000, mouse, Beta Cell Biology Consortium, Nashville, Tenn., USA), 5-bromodeoxyuridine (BrdU; mouse, GE healthcare, Piscataway, N.J., USA), and C-peptide (1/100, rabbit, Cell Signaling, Danvers, Mass., USA). Secondary antibodies for detection of guinea pig, rabbit, goat, or mouse antibodies were labeled with: Alexa Fluor 488 (Invitrogen, Carlsbad, Calif., USA), Rhodamine Red (Jackson ImmunoResearch Laboratories, West Grove, Pa., USA), Cy5 (Jackson ImmunoResearch Laboratories, West Grove, Pa., USA). Nuclei were visualized with DAPI (40,6-diamidino-2-phenylindole) (Sigma Aldrich, St. Louis, Mo., USA).\nImage and Statistical Analysis—All images were acquired by confocal scanning microscopy (Radiance 2100/AGR-3Q BioRad Multi-photon Laser Point Scanning Confocal Microscope). Images were processed with Image J software. The colocalization patterns in FIG. 4, FIGS. 18 and 19 were determined by the colocalization threshold algorithm in WCIF image J. Confocal z stacks were captured at 0.5 lm increments. Three dimensional reconstructions and measurements were performed by using Volocity software (version 5.3). Statistical significance of cell-specific changes in controls versus experimental groups was calculated by an unpaired Student's t-test. We considered p-values below 0.05 as statistically significant. For all statistical analysis, Graphpad Prism 5 was used. All results are expressed as mean±SD."}, "[2]": {"assay": "Mortality and glycemia following PDL plus alloxan", "method": "as §1\nThe initial insulin dose was 1 unit per mouse (around […] in weight). If hyperglycemia was not controlled at that dose, it was raised gradually until diabetes was controlled. Even with careful management of diabetes, the mortality following PDL plus alloxan was high, around 50%."}, "[3]": {"settings": "14 days following alloxan plus PDL"}, "[4]": {"settings": "seven days following PDL plus alloxan"}}}
{"smiles": "O=C1NC(=O)C(=O)C(=O)N1", "note": "[alloxan]", "values": [{"measurement": "residual β-cells, of pre-existing β-cells", "setting": "β-cells; after alloxan", "result": "less than 1%"}, {"measurement": "pre-existing β-cells eliminated", "setting": "β-cells; alloxan injection, by 3 days after injection", "result": 99, "unit": "%"}, {"measurement": "β-cell regeneration", "setting": "β-cells; alloxan treatment alone, two weeks later", "result": "no evidence of β-cell regeneration"}, {"measurement": "change in β-cell mass", "setting": "β-cells; alloxan, between 3 and 14 days after injection", "result": "no change in the β-cell mass"}, {"measurement": "β-cells eliminated", "setting": "β-cells; following PDL plus alloxan", "result": "greater than 99%"}, {"measurement": "insulin-positive cells coexpressing glucagon", "setting": "[1]; 1 week following PDL plus alloxan", "result": 58, "unit": "%"}, {"measurement": "frequency of replicating insulin-positive cells (Ki67)", "setting": "[1]; 3 days following alloxan plus PDL", "result": 0.98, "unit": "%"}, {"measurement": "replication rate of glucagon-positive cells", "setting": "[1]; 7 days following PDL plus alloxan", "result": 5, "unit": "%"}, {"measurement": "insulin-positive cells coexpressing glucagon", "setting": "[1]; 14 days following PDL plus alloxan", "result": 21, "unit": "%"}, {"measurement": "β-cells expressing MafA", "setting": "[1]; [3]", "result": 63, "unit": "%"}, {"measurement": "β-cells expressing MafB", "setting": "[1]; [3]", "result": 22, "unit": "%"}, {"measurement": "α-cells expressing PDX1", "setting": "[1]; PDL plus alloxan, within 1 week", "result": 11, "unit": "%"}, {"measurement": "frequency of replicating insulin-positive cells (Ki67)", "setting": "[1]; day 7 following PDL plus alloxan", "result": 6, "unit": "%"}, {"measurement": "frequency of replicating insulin-positive cells (Ki67)", "setting": "[1]; day 14 following PDL plus alloxan", "result": "decreased to basal levels"}, {"measurement": "insulin positive cells expressing MafA", "setting": "[1]; [4]", "result": 26, "unit": "%"}, {"measurement": "insulin positive cells expressing MafB", "setting": "[1]; [4]", "result": 64, "unit": "%"}, {"measurement": "normoglycemia", "setting": "[2]; PDL plus alloxan", "result": "did not achieve normoglycemia"}, {"measurement": "mortality", "setting": "[2]; following PDL plus alloxan, with insulin glargine management of diabetes", "result": "around 50%"}]}
